Experimental data reported in PMC7230731 (Marine Drugs, 2020).
Blank lines part the entries; values can stand above or below the compound they belong to.

Assays:
Type in all cases: cell-based, human
[1] = system: MCF-7 cells; test: SRB antiproliferative assay, MCF-7; conditions: for IC50: Homo sapiens, MCF7, 48 h, MCF-7 breast cancer cells, SRB assay, 48 h, mean ± S.D. of three experiments; for potency relative to Staurosporine, MCF-7: ratio of IC50 values, MCF-7 cells
Experimental: (§1) 1. Anti-proliferative action toward human breast cell lines […]
(§2) and non-tumorigenic human breast epithelial cell line (MCF-10A) have been obtained from American Type Culture Collection (ATCC). The cells were maintained in Dulbecco's modified Eagle's medium (DMEM) supplemented with 10% heat inactivated fetal calf serum (GIBCO), penicillin (100 U/ml) and streptomycin (100 µg/ml) at 37 °C in humidified atmosphere containing 5% CO2. […]
(§3) grown in a 25 cm2 flask in 5 ml of culture medium.
(§4) The anti-proliferative activity of the tested compounds was measured in vitro using the Sulfo-Rhodamine-B stain (SRB) assay. Briefly, Cells were inoculated in 96-well microtiter plate (5X104 cells/ well) for 24 h before treatment with the tested compounds to allow attachment of cell to the wall of the plate. Tested compounds were dissolved in DMSO at 1 mg/ml immediately before use and diluted to the appropriate volume just before addition to the cell culture. Different concentrations of tested compounds, doxorubicin and sorafenib were added to the cells (three wells were prepared for each […]
(§5) atmosphere of 5% CO2. After 48 h cells were fixed, washed, and stained for 30 min with 0.4% (w/v) SRB dissolved in 1% acetic acid. Unbound dye was removed by four washes with 1% acetic acid, and attached stain was recovered with Tris-EDTA buffer. Color intensity was measured in an ELISA reader. The relation between percent of surviving fraction and drug concentration is plotted to get the survival curve for each cell line. […]

[2] = system: MDA-MB-231 cells; test: SRB antiproliferative assay, MDA-MB-231; conditions: for IC50: Homo sapiens, MDA-MB-231, 48 h, MDA-MB-231 triple-negative breast cancer cells, SRB assay, 48 h, mean ± S.D. of three experiments
Experimental: as §1, §2, §3, §4, §5

[3] = system: MCF-7 cells; test: Cell cycle analysis by DNA flow cytometry; conditions: IC50 concentration; for %G0-G1 / %G2/M / %S / %Sub-G1: 24 h
Experimental: Anticancer agents exert their cytotoxic action by aborting cellular proliferation at certain checkpoints. These checkpoints are distinguishable phases in the cell cycle, whose suppression results in termination of the cell proliferation.
The influence of bis-indoles 7e and 9a on cell cycle progression was examined in breast cancer MCF-7 cells, after 24 h of treatment, through DNA flow cytometric assay by the use of BD FACS Caliber flow cytometer, as described previously. The cell cycle distributions were calculated using CellQuest software (Becton Dickinson). […]
The two examined human breast cancer cell lines (MCF-7 and Breast MDA-MB-231), and non-tumorigenic human breast epithelial cell line (MCF-10A) have been obtained from American Type Culture Collection (ATCC). The cells were maintained in Dulbecco's modified Eagle's medium (DMEM) supplemented with 10% heat inactivated fetal calf serum (GIBCO), penicillin (100 U/ml) and streptomycin (100 µg/ml) at 37 °C in humidified atmosphere containing 5% CO2. Cells at a concentration of 0.50 x 106 were grown in a 25 cm2 flask in 5 ml of culture medium. […]
Breast cancer MCF-7 cells were treated with bis-indoles 7e and 9a for 24 h (at their IC50 concentration), and then cells were washed twice with ice-cold phosphate buffered saline (PBS). Subsequently, the treated cells were collected by centrifugation, fixed in ice-cold 70% (v/v) ethanol, washed with PBS, re-suspended with 100 μg/mL RNase, stained with 40 μg/mL PI, and analyzed by flow cytometry using FACS Calibur (Becton Dickinson, BD, Franklin Lakes, NJ, USA). The cell cycle distributions were calculated using CellQuest software 5.1 (Becton Dickinson).

[4] = system: MCF-7 cells; test: Annexin V-FITC/PI apoptosis assay; conditions: IC50 concentration; for Total (L.R % + U.R %): early + late apoptosis
Experimental: Annexin V-based flow cytometry analysis is a useful tool to investigate whether cell death is pertaining to physiological apoptosis or nonspecific necrosis. Evaluation of the apoptotic effect of bis-indoles 7e and 9a was carried out using AnxV-FITC/DAPI dual staining assay (Figure 4).
The apoptotic action of bis-indoles 7e and 9a was further explored through the investigation of their effect on the phosphatidylserine externalization in breast cancer MCF-7 cells, using Annexin-V-FITC Apoptosis Detection Kit according to manufacturer’s protocol, as reported earlier. […]
4. Annexin V-FITC Apoptosis Assay
Phosphatidylserine externalization was assayed using Annexin V-FITC/PI apoptosis detection kit (BD Biosciences, USA) according to the manufacturer’s instructions. Breast cancer MCF-7 cells were cultured to a monolayer then treated with bis-indoles 7e and 9a at their IC50 concentration. Briefly, cells were then harvested via trypsinization, and rinsed twice in PBS followed by binding buffer. Moreover, cells were re-suspended in 100 μL of binding buffer with the addition of 1 μL of FITC-Annexin V followed by an incubation period of 30 min at 4 °C. Cells were then rinsed in binding buffer and resuspended in 150 μL of binding buffer with the addition of 1 μL of DAPI (1 μg/μL in PBS). Cells were then analyzed using the flow cytometer BD FACS Canto II and the results were interpreted with FlowJo7.6.4 software (Tree Star, Ashland, OR, USA).

IC50 [1]: 1280 ± 40 nM | IC50 [2]: 18200 ± 620 nM
SMILES: C=CCN1C(=O)C(=NNC(=O)Cc2c[nH]c3ccccc23)c2ccccc21 [Compound 9a, N′-(1-Allyl-2-oxoindolin-3-ylidene)-2-(1H-indol-3-yl)acetohydrazide]
potency relative to Staurosporine, MCF-7 [1]: 5.3 times | augmentation of proportion of cells in G2/M phase vs control [3]: 2.21 fold | augmentation of proportion of cells in Sub-G1 phase vs control [3]: 13.42 fold | %G0-G1 [3]: 43.82% | %G2/M [3]: 31.27% | %S [3]: 24.91% | %Sub-G1 [3]: 24.02% | Early Apoptosis (Lower Right %) [4]: 7.01% | Late Apoptosis (Upper Right %) [4]: 15.20% | increase in total apoptosis percentage vs control [4]: 16.8 fold | Total (L.R % + U.R %) [4]: 22.21%

IC50 [1]: 440 ± 10 nM | IC50 [2]: 1320 ± 30 nM
SMILES: O=C(Cc1c[nH]c2ccccc12)NN=C1C(=O)Nc2ccc([N+](=O)[O-])cc21 [Compound 7e, 2-(1H-Indol-3-yl)-N′-(5-nitro-2-oxoindolin-3-ylidene)acetohydrazide]
potency relative to Staurosporine, MCF-7 [1]: 15.5 times | potency relative to Staurosporine, MDA-MB-231 ([2]; ratio of IC50 values, MDA-MB-231 cells): 7.8 times | augmentation of proportion of cells in G2/M phase vs control [3]: 3 fold | augmentation of proportion of cells in Sub-G1 phase vs control [3]: 18.77 fold | %G0-G1 [3]: 31.66% | %G2/M [3]: 42.9% | %S [3]: 25.44% | %Sub-G1 [3]: 33.61% | Early Apoptosis (Lower Right %) [4]: 9.56% | Late Apoptosis (Upper Right %) [4]: 21.76% | increase in total apoptosis percentage vs control [4]: 23.7 fold | Total (L.R % + U.R %) [4]: 31.32%
